Each structure is given as a SMILES string. Marks after values point to notes of the source that are not given here.

A short description of the data set: amounts of β-lactam antibiotic, β-lactamase inhibitor (C18 reverse-phase LC, UV-VIS) and aminoglycoside (HPLC-ELSD) in solution over time. The format is physicochemical.

On to `C[C@]1(Cn2ccnn2)[C@H](C(=O)O)N2C(=O)C[C@H]2S1(=O)=O` [Tazobactam sodium], for which the “amount of component as percentage with respect to the amount at the initial time” value (from here on “amount of component as percentage”) (Example 8: freeze-dried ceftriaxone sodium, tazobactam sodium, gentamicin sulfate, citrate pH 6.75, 2.5% fructose, 7 days 0° C., in 100 mL water, Time 0 h) turned out to be 102.2%; the “amount of component as percentage” value (Example 8: freeze-dried ceftriaxone sodium, tazobactam sodium, gentamicin sulfate, citrate pH 6.75, 2.5% fructose, 7 days 0° C., in 100 mL water, Time 1 h) came to 97.53%; the “amount of component as percentage” value (Example 8: freeze-dried ceftriaxone sodium, tazobactam sodium, gentamicin sulfate, citrate pH 6.75, 2.5% fructose, 7 days 0° C., in 100 mL water, Time 2 h) is 94.16%; the “amount of component as percentage” value (Example 8: freeze-dried ceftriaxone sodium, tazobactam sodium, gentamicin sulfate, citrate pH 6.75, 2.5% fructose, 7 days 0° C., in 100 mL water, Time 4 h) is listed as 94.58%; the “amount of component as percentage” value (Example 8: freeze-dried ceftriaxone sodium, tazobactam sodium, gentamicin sulfate, citrate pH 6.75, 2.5% fructose, 7 days 0° C., in 100 mL water, Time 6 h) amounted to 95.45%; the “amount of component as percentage” value (Example 8: freeze-dried ceftriaxone sodium, tazobactam sodium, gentamicin sulfate, citrate pH 6.75, 2.5% fructose, 7 days 0° C., in 100 mL water, Time 8 h) amounted to 94.44%. Moreover, the “amount of component as percentage” value reads like this: (Example 16: 10 mL of the final solution (cefoperazone sodium, tazobactam sodium, etimicin sulfate, citrate) + gentamicin sulfate 16 mg, Time 0 h) 93.36%; (Example 16: 10 mL of the final solution (cefoperazone sodium, tazobactam sodium, etimicin sulfate, citrate) + gentamicin sulfate 16 mg, Time 1 h) 104.8%; (Example 16: 10 mL of the final solution (cefoperazone sodium, tazobactam sodium, etimicin sulfate, citrate) + gentamicin sulfate 16 mg, Time 2 h) 100.0%; (Example 16: 10 mL of the final solution (cefoperazone sodium, tazobactam sodium, etimicin sulfate, citrate) + gentamicin sulfate 16 mg, Time 4 h) 96.58* %; (Example 16: 10 mL of the final solution (cefoperazone sodium, tazobactam sodium, etimicin sulfate, citrate) + gentamicin sulfate 16 mg, Time 6 h) 106.1* %; (Example 16: 10 mL of the final solution (cefoperazone sodium, tazobactam sodium, etimicin sulfate, citrate) + gentamicin sulfate 16 mg, Time 8 h) 107.1* %. Further, the “amount of component as percentage” value reads like this: (Example 16: freeze-dried cefoperazone sodium 4 g, tazobactam sodium 1 g, citrate pH 6.75, 7 days 0° C., in 100 mL water, 10 mL + etimicin sulfate 20 mg, room temperature, Time 0 h) 98.77%; (Example 16: freeze-dried cefoperazone sodium 4 g, tazobactam sodium 1 g, citrate pH 6.75, 7 days 0° C., in 100 mL water, 10 mL + etimicin sulfate 20 mg, room temperature, Time 1 h) 108.2%; (Example 16: freeze-dried cefoperazone sodium 4 g, tazobactam sodium 1 g, citrate pH 6.75, 7 days 0° C., in 100 mL water, 10 mL + etimicin sulfate 20 mg, room temperature, Time 2 h) 110.8%; (Example 16: freeze-dried cefoperazone sodium 4 g, tazobactam sodium 1 g, citrate pH 6.75, 7 days 0° C., in 100 mL water, 10 mL + etimicin sulfate 20 mg, room temperature, Time 4 h) 97.39%; (Example 16: freeze-dried cefoperazone sodium 4 g, tazobactam sodium 1 g, citrate pH 6.75, 7 days 0° C., in 100 mL water, 10 mL + etimicin sulfate 20 mg, room temperature, Time 6 h) 106.3%; (Example 16: freeze-dried cefoperazone sodium 4 g, tazobactam sodium 1 g, citrate pH 6.75, 7 days 0° C., in 100 mL water, 10 mL + etimicin sulfate 20 mg, room temperature, Time 8 h) 106.3%. In addition, the “amount of component as percentage” value stood at 102.2% (Example 20: ceftriaxone sodium 2 g, tazobactam sodium 2 g, gentamicin sulfate 160 mg, citrate pH 6.75, 200 mL water, room temperature, Time 0 h); 97.53% (Example 20: ceftriaxone sodium 2 g, tazobactam sodium 2 g, gentamicin sulfate 160 mg, citrate pH 6.75, 200 mL water, room temperature, Time 1 h); 94.16% (Example 20: ceftriaxone sodium 2 g, tazobactam sodium 2 g, gentamicin sulfate 160 mg, citrate pH 6.75, 200 mL water, room temperature, Time 2 h); 94.58% (Example 20: ceftriaxone sodium 2 g, tazobactam sodium 2 g, gentamicin sulfate 160 mg, citrate pH 6.75, 200 mL water, room temperature, Time 4 h); 95.45% (Example 20: ceftriaxone sodium 2 g, tazobactam sodium 2 g, gentamicin sulfate 160 mg, citrate pH 6.75, 200 mL water, room temperature, Time 6 h); 94.44% (Example 20: ceftriaxone sodium 2 g, tazobactam sodium 2 g, gentamicin sulfate 160 mg, citrate pH 6.75, 200 mL water, room temperature, Time 8 h).

The record behind these values is patent US20090156518A1, “STABLE PHARMACEUTICAL COMPOSITION COMPRISING BETA-LACTAM ANTIBIOTIC AND BUFFER” (priority 2006, published 2009).
